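1) Cells in 96-well plates. 2) Compound, 48 h, 5 concentrations. 3) Linear interpolation between surrounding doses. 4) Unreached endpoint = highest concentration. TGI: concentration producing complete growth inhibition.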
How the values were obtained:
Test in all cases: inhibition of tumour cell growth, NCI panel, 48 h
[1] = tested on: OVCAR-4 ovarian
[2] = tested on: OVCAR-8 ovarian
[3] = tested on: XF 498 CNS
[4] = tested on: SK-OV-3 ovarian
[5] = tested on: SK-MEL-2 melanoma
[6] = tested on: SN12C renal
[7] = tested on: SF-295 CNS
[8] = tested on: HOP-62 NSCLC
[9] = tested on: SF-268 CNS
[10] = tested on: MOLT-4 leukemia
[11] = tested on: SNB-75 CNS
[12] = tested on: LOX IMVI melanoma
[13] = tested on: KM12 colon
[14] = tested on: NCI-H460 lung
[15] = tested on: LXFL 529 NSCLC
[16] = tested on: UO-31 renal
[17] = tested on: NCI-H522 lung
[18] = tested on: UACC-62 melanoma
[19] = tested on: 786-0 renal
[20] = tested on: KM20L2 colon
[21] = tested on: HT29 colon
[22] = tested on: CAKI-1 renal
[23] = tested on: SK-MEL-28 melanoma
[24] = tested on: DMS 273 small cell lung
[25] = tested on: CCRF-CEM leukemia
[26] = tested on: EKVX NSCLC
[27] = tested on: UACC-257 melanoma
[28] = tested on: M14 melanoma
[29] = tested on: HL-60(TB) leukemia
[30] = tested on: RPMI-8226 leukemia
[31] = tested on: ACHN renal
[32] = tested on: HCC-2998 colon
[33] = tested on: HOP-92 NSCLC
[34] = tested on: DLD-1 colon
[35] = tested on: K-562 leukemia
[36] = tested on: A549 NSCLC
[37] = tested on: HOP-18 NSCLC
[38] = tested on: DMS 114 small cell lung
[39] = tested on: HCT-15 colon
[40] = tested on: SW-620 colon
[41] = tested on: U251 CNS
[42] = tested on: A498 renal
[43] = tested on: COLO 205 colon
[44] = tested on: MALME-3M melanoma
[45] = tested on: RXF 393 renal
[46] = tested on: NCI-H23 lung
[47] = tested on: IGROV1 ovarian
[48] = tested on: OVCAR-5 ovarian
[49] = tested on: SNB-78 CNS
[50] = tested on: TK-10 renal
[51] = tested on: M19-MEL melanoma
[52] = tested on: NCI-H226 lung
[53] = tested on: SF-539 CNS
[54] = tested on: SK-MEL-5 melanoma
[55] = tested on: SNB-19 CNS
[56] = tested on: OVCAR-3 ovarian
[57] = tested on: SR leukemia
[58] = tested on: HCT-116 colon

For `O=C(CC1C(=O)c2ccccc2C1=C1C(=O)c2ccccc2C1=O)c1ccccc1` (configuration not stated), which TGI [1] is on record?
Its TGI is greater than 100 µM.

And the TGI [2]?
Its TGI is greater than 100 µM.

What about the TGI [3] of the same molecule?
Its TGI is greater than 100 µM.

What about the TGI [4] of the same molecule?
Its TGI is greater than 100 µM.

What about the TGI [5] of the same molecule?
Its TGI is greater than 100 µM.

And the TGI [6]?
Its TGI is greater than 100 µM.

What about the TGI [7] of the same molecule?
The TGI was greater than 100 µM.

What about the TGI [8] of the same molecule?
Its TGI is greater than 100 µM.

And the TGI [9]?
The TGI was greater than 100 µM.

What about the TGI [10] of the same molecule?
The TGI was greater than 100 µM.

What about the TGI [11] of the same molecule?
The TGI was greater than 100 µM.

And the TGI [12]?
The TGI was greater than 100 µM.

And the TGI [13]?
Its TGI is greater than 100 µM.

And the TGI [14]?
Its TGI is greater than 100 µM.

And the TGI [15]?
Its TGI is greater than 100 µM.

And the TGI [16]?
The TGI was greater than 100 µM.

And the TGI [17]?
Its TGI is 97.3 µM.

And the TGI [18]?
The TGI was greater than 100 µM.

And the TGI [19]?
Its TGI is greater than 100 µM.

What about the TGI [20] of the same molecule?
The TGI was greater than 100 µM.

What about the TGI [21] of the same molecule?
The TGI was greater than 100 µM.

And the TGI [22]?
The TGI was greater than 100 µM.

What about the TGI [23] of the same molecule?
Its TGI is greater than 100 µM.

What about the TGI [24] of the same molecule?
Its TGI is greater than 100 µM.

And the TGI [25]?
Its TGI is greater than 100 µM.

And the TGI [26]?
Its TGI is greater than 100 µM.

What about the TGI [27] of the same molecule?
Its TGI is greater than 100 µM.

What about the TGI [28] of the same molecule?
Its TGI is greater than 100 µM.

What about the TGI [29] of the same molecule?
Its TGI is greater than 100 µM.

What about the TGI [30] of the same molecule?
The TGI was greater than 100 µM.

What about the TGI [31] of the same molecule?
The TGI was greater than 100 µM.

What about the TGI [32] of the same molecule?
The TGI was greater than 100 µM.

And the TGI [33]?
The TGI was greater than 100 µM.

What about the TGI [34] of the same molecule?
Its TGI is greater than 100 µM.

What about the TGI [35] of the same molecule?
The TGI was greater than 100 µM.

And the TGI [36]?
The TGI was greater than 100 µM.

And the TGI [37]?
The TGI was greater than 100 µM.

And the TGI [38]?
Its TGI is greater than 100 µM.

What about the TGI [39] of the same molecule?
Its TGI is greater than 100 µM.

And the TGI [40]?
Its TGI is greater than 100 µM.

And the TGI [41]?
The TGI was greater than 100 µM.

And the TGI [42]?
The TGI was greater than 100 µM.

And the TGI [43]?
Its TGI is greater than 100 µM.

And the TGI [44]?
The TGI was greater than 100 µM.

What about the TGI [45] of the same molecule?
The TGI was greater than 100 µM.

What about the TGI [46] of the same molecule?
The TGI was greater than 100 µM.

And the TGI [47]?
The TGI was greater than 100 µM.

And the TGI [48]?
Its TGI is greater than 100 µM.

What about the TGI [49] of the same molecule?
Its TGI is greater than 100 µM.

And the TGI [50]?
Its TGI is greater than 100 µM.

And the TGI [51]?
Its TGI is greater than 100 µM.

What about the TGI [52] of the same molecule?
Its TGI is greater than 100 µM.

What about the TGI [53] of the same molecule?
The TGI was greater than 100 µM.

What about the TGI [54] of the same molecule?
Its TGI is greater than 100 µM.

And the TGI [55]?
Its TGI is greater than 100 µM.

With `O=C1C=CC(CC(=O)c2ccc3ccccc3c2)O1` (configuration not stated) as the molecule, how does the TGI [1] read?
The TGI was 63.7 µM.

And the TGI [2]?
Its TGI is 32.8 µM.

What about the TGI [3] of the same molecule?
Its TGI is greater than 100 µM.

What about the TGI [4] of the same molecule?
Its TGI is greater than 100 µM.

What about the TGI [5] of the same molecule?
The TGI was 47.5 µM.

And the TGI [6]?
Its TGI is 36 µM.

And the TGI [7]?
Its TGI is greater than 100 µM.

And the TGI [8]?
The TGI was 36.6 µM.

What about the TGI [9] of the same molecule?
Its TGI is 39.9 µM.

And the TGI [10]?
The TGI was 65.6 µM.

And the TGI [11]?
The TGI was 91.2 µM.

And the TGI [12]?
Its TGI is 35.8 µM.

And the TGI [56]?
Its TGI is 41.6 µM.

And the TGI [13]?
The TGI was 31.4 µM.

What about the TGI [14] of the same molecule?
Its TGI is 55.2 µM.

What about the TGI [15] of the same molecule?
Its TGI is 32.3 µM.

What about the TGI [16] of the same molecule?
The TGI was 39.2 µM.

And the TGI [57]?
Its TGI is 83.1 µM.

And the TGI [18]?
The TGI was 34.6 µM.

And the TGI [19]?
The TGI was 39.1 µM.

And the TGI [20]?
Its TGI is 34.7 µM.

What about the TGI [21] of the same molecule?
The TGI was 33.1 µM.

And the TGI [22]?
Its TGI is greater than 100 µM.

What about the TGI [23] of the same molecule?
Its TGI is greater than 100 µM.

And the TGI [24]?
The TGI was 45.3 µM.

What about the TGI [25] of the same molecule?
The TGI was 63.4 µM.

What about the TGI [26] of the same molecule?
The TGI was greater than 100 µM.

What about the TGI [27] of the same molecule?
Its TGI is greater than 100 µM.

And the TGI [28]?
The TGI was 93.9 µM.

And the TGI [29]?
The TGI was 37.3 µM.

And the TGI [31]?
The TGI was greater than 100 µM.

What about the TGI [32] of the same molecule?
Its TGI is 31.1 µM.

What about the TGI [33] of the same molecule?
The TGI was 47 µM.

What about the TGI [34] of the same molecule?
Its TGI is 80.6 µM.

And the TGI [35]?
Its TGI is greater than 100 µM.

And the TGI [36]?
The TGI was greater than 100 µM.

And the TGI [37]?
The TGI was greater than 100 µM.

And the TGI [39]?
Its TGI is 50.4 µM.

And the TGI [40]?
Its TGI is 49.5 µM.

What about the TGI [41] of the same molecule?
Its TGI is 32.1 µM.

What about the TGI [42] of the same molecule?
The TGI was 46.1 µM.

And the TGI [43]?
The TGI was 31.9 µM.

What about the TGI [44] of the same molecule?
The TGI was greater than 100 µM.

And the TGI [45]?
The TGI was 36.6 µM.

What about the TGI [46] of the same molecule?
The TGI was 46.7 µM.

What about the TGI [47] of the same molecule?
The TGI was 65.2 µM.

What about the TGI [58] of the same molecule?
Its TGI is 32.3 µM.

What about the TGI [48] of the same molecule?
Its TGI is 41.5 µM.

And the TGI [49]?
The TGI was greater than 100 µM.

And the TGI [50]?
Its TGI is 69.8 µM.

And the TGI [51]?
The TGI was greater than 100 µM.

And the TGI [53]?
Its TGI is 33.2 µM.

What about the TGI [54] of the same molecule?
The TGI was greater than 100 µM.

What about the TGI [55] of the same molecule?
The TGI was 76.8 µM.

What does the source list for `Cc1ccc(NC(=O)C(=O)Cc2cc[n+]([O-])cc2)cc1`?
TGI [1]: > 100 µM; TGI [2]: > 100 µM; TGI [3]: > 100 µM; TGI [4]: > 100 µM; TGI [5]: > 100 µM; TGI [6]: > 100 µM; TGI [7]: > 100 µM; TGI [8]: > 100 µM; TGI [9]: > 100 µM; TGI [10]: > 100 µM; TGI [11]: > 100 µM; TGI [12]: > 100 µM; TGI [56]: > 100 µM; TGI [13]: > 100 µM; TGI [14]: > 100 µM; TGI [15]: > 100 µM; TGI [16]: > 100 µM; TGI [57]: > 100 µM; TGI [17]: > 100 µM; TGI [18]: > 100 µM; TGI [19]: > 100 µM; TGI [20]: > 100 µM; TGI [21]: > 100 µM; TGI [22]: > 100 µM; TGI [23]: > 100 µM; TGI [24]: > 100 µM; TGI [25]: > 100 µM; TGI [26]: > 100 µM; TGI [27]: > 100 µM; TGI [28]: > 100 µM; TGI [29]: > 100 µM; TGI [30]: > 100 µM; TGI [31]: > 100 µM; TGI [32]: > 100 µM; TGI [33]: > 100 µM; TGI [34]: > 100 µM; TGI [35]: > 100 µM; TGI [36]: > 100 µM; TGI [37]: > 100 µM; TGI [38]: > 100 µM; TGI [39]: > 100 µM; TGI [40]: > 100 µM; TGI [41]: > 100 µM; TGI [42]: > 100 µM; TGI [43]: > 100 µM; TGI [44]: > 100 µM; TGI [45]: > 100 µM; TGI [46]: > 100 µM; TGI [47]: > 100 µM; TGI [58]: > 100 µM; TGI [48]: > 100 µM; TGI [49]: > 100 µM; TGI [50]: > 100 µM; TGI [51]: > 100 µM; TGI [52]: > 100 µM; TGI [53]: > 100 µM; TGI [54]: > 100 µM; TGI [55]: > 100 µM
